Experimental data from US11229622B2, “Cosmetological and pharmaceutical composition based on combinatorial quercetin derivative” (priority 2017, dated 2022).

Assays:
[1] = system: carrageenan edema of the foot; conditions: from references [14, 16]; cited from earlier work
[2] = Biological activity of fully substituted quercetins (test not specified)
[3] = system: SBP of white rats; assay: Antihypertensive effect in normotensive white rats; assay type: in vivo; conditions: for Antihypertensive effect, %: intravenous, after 3 hours, Octadine 6.2 mg/kg, Greenflo 5.0 mg/kg (as thick chlorophyllipt extract), 0.025 mmol/kg
Experimental: The antihypertensive effect of the drugs was evaluated after 3 hours of observation. Digital data table.
For an objective comparison of the activity of the studied substances, ED30 was experimentally established (a unit of action that causes a decrease in SBP by 30%) for each drug. For this purpose, the value of the hypotensive effect of various doses of substances in three groups of five white rats was determined in experiment, the arithmetic mean of the obtained series and their standard errors were calculated. Then, digital data was plotted and ED30 was calculated.
An indicator of the true hypotensive effect of a new chemical is its ability to lower pathologically elevated SBP. To solve this problem, 5 adult white rats with spontaneous hypertension (weight 260-280 g) were used, in which, before the experiment, the level of SBP averaged 180±1.7 mm Hg. For comparison, an experiment was conducted on 5 white rats with normal SBP. 17.

[4] = system: systemic blood pressure of rabbits; assay: Antihypertensive effect in rabbits; assay type: in vivo; conditions: intravenous, 3 hours, Octadine 15.0 mg/kg (0.06 mmol/kg), Greenflo 10.0 mg/kg (0.05 mmol/kg)
[5] = system: systemic blood pressure of cats; assay: Antihypertensive effect in cats; assay type: in vivo; conditions: 3 hours, Octadine 20.0 mg/kg (0.08 mmol/kg), Greenflo 10.0 mg/kg (0.05 mmol/kg)

O=C(O)Cc1ccccc1Nc1c(Cl)cccc1Cl [DN, sodium diclofenac]
ED 50, mg/kg [1]: 8.0 [14, 16] mg/kg

O=C(O)CCC(=O)Oc1cc(OC(=O)CCC(=O)O)c2c(=O)c(OC(=O)CCC(=O)O)c(-c3ccc(OC(=O)CCC(=O)O)c(OC(=O)CCC(=O)O)c3)oc2c1 [Fully succinylated quercetin, pentasuccinyl quercetin]
biological activity [2]: did not exhibit biological activity

N=C(N)NCCN1CCCCCCC1 [Octadine]
The effect, % (hypotensive) ([3]; dose 5.0 mg/kg): 18.0 ± 2.7% | The effect, % (hypotensive) ([3]; dose 10.0 mg/kg): 26.0 ± 1.5% | The effect, % (hypotensive) ([3]; dose 20.0 mg/kg): 33.0 ± 4.9% | Antihypertensive effect, % [3]: 19.7 ± 2.2% | Antihypertensive effect, % ([3]; listed as octadine): 19.7±2.2% | Antihypertensive effect, % [4]: 32.0 ± 6.1% | Antihypertensive effect, % [5]: 35.0 ± 9.9%
